From patent US7453010B2, “Phenylcyclohexylpropanolamine derivatives, preparation and therapeutic application thereof” (Sanofi Aventis, priority 2002, dated 2008)

melting point	Compound
85 to 90 °C	CS(=O)(=O)Nc1cc(OC[C@@H](O)CN[C@H]2CC[C@H](c3ccc(O)cc3)CC2)ccc1O [Compound 1, trans-N-{2-Hydroxy-5-[((2S)-2-hydroxy-3-{[4-(4-hydroxyphenyl)cyclohexyl]amino}propyl)oxy]phenyl}methanesulfonamide]
60 to 70 °C	CCOC(=O)COc1ccc([C@H]2CC[C@H](NC[C@H](O)COc3ccc(O)c(NS(C)(=O)=O)c3)CC2)cc1 [Compound 2, Ethyl trans-(4-{4-[((2S)-2-hydroxy-3-{4-hydroxy-3-[(methylsulfonyl)amino]phenoxy}propyl)amino]cyclohexyl}phenoxy)acetate]
